Measurements as given in PubChem BioAssay AID2060484 (Molecular Pharmacology Branch, DTP, NCI, 2025).

Test system: SUM149PT spheroids with HUVEC/MSC, viability
Experiment: Anticancer human tumor SUM149PT cell line growth inhibition [GQUAD];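 note: spheroids exposed to drugs for seven days before readout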;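 for viability, T/C: percent viability relative to DMSO vehicle control taken as 100%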
Settings: for IC50: curve of first compound; for viability, T/C: stronger effect = lower value
Outline: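 Viability of tumor cells grown as complex spheroids with endothelial and stromal cells, exposed to drug combinations. Top concentration at or near clinical Cmax (else 10 microM), diluted in half-log increments.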

[1] = second compound 0.0316 µM, first compound 0.0316 µM
[2] = second compound 0.0316 µM, first compound 0.1 µM
[3] = second compound 0.0316 µM, first compound 0.316 µM
[4] = second compound 0.0316 µM, first compound 1 µM
[5] = second compound 0.0316 µM, first compound 3.16 µM
[6] = second compound 0.0316 µM, first compound 10 µM
[7] = second compound 0.1 µM, first compound 0.0316 µM
[8] = second compound 0.1 µM, first compound 0.1 µM
[9] = second compound 0.1 µM, first compound 0.316 µM
[10] = second compound 0.1 µM, first compound 1 µM
[11] = second compound 0.1 µM, first compound 3.16 µM
[12] = second compound 0.1 µM, first compound 10 µM
[13] = second compound 0.316 µM, first compound 0.0316 µM
[14] = second compound 0.316 µM, first compound 0.1 µM
[15] = second compound 0.316 µM, first compound 0.316 µM
[16] = second compound 0.316 µM, first compound 1 µM
[17] = second compound 0.316 µM, first compound 3.16 µM
[18] = second compound 0.316 µM, first compound 10 µM
[19] = second compound 1 µM, first compound 0.0316 µM
[20] = second compound 1 µM, first compound 0.1 µM
[21] = second compound 1 µM, first compound 0.316 µM
[22] = second compound 1 µM, first compound 1 µM
[23] = second compound 1 µM, first compound 3.16 µM
[24] = second compound 1 µM, first compound 10 µM
[25] = second compound 3.16 µM, first compound 0.0316 µM
[26] = second compound 3.16 µM, first compound 0.1 µM
[27] = second compound 3.16 µM, first compound 0.316 µM
[28] = second compound 3.16 µM, first compound 1 µM
[29] = second compound 3.16 µM, first compound 3.16 µM
[30] = second compound 3.16 µM, first compound 10 µM
[31] = second compound 10 µM, first compound 0.0316 µM
[32] = second compound 10 µM, first compound 0.1 µM
[33] = second compound 10 µM, first compound 0.316 µM
[34] = second compound 10 µM, first compound 1 µM
[35] = second compound 10 µM, first compound 3.16 µM
[36] = second compound 10 µM, first compound 10 µM

CC(C)n1c(=O)n(C)c2cnc3cc(F)c(-c4ccc(OCCCN5CCCCC5)nc4)cc3c21 + Cc1[nH]c2ccc(F)cc2c1-c1nc2c3cccnc3c3ncccc3c2[nH]1
IC50 (second compound 0.0316 µM): > 10000 nM | IC50 (second compound 0.1 µM): > 10000 nM | IC50 (second compound 0.316 µM): > 10000 nM | IC50 (second compound 1 µM): > 10000 nM | IC50 (second compound 3.16 µM): > 10000 nM | IC50 (second compound 10 µM): > 10000 nM | viability, T/C [1]: 86.3% | viability, T/C [2]: 80.9% | viability, T/C [3]: 104% | viability, T/C [4]: 96.4% | viability, T/C [5]: 98.1% | viability, T/C [6]: 67.7% | viability, T/C [7]: 97.8% | viability, T/C [8]: 90.8% | viability, T/C [9]: 88% | viability, T/C [10]: 101% | viability, T/C [11]: 98.5% | viability, T/C [12]: 73% | viability, T/C [13]: 99.3% | viability, T/C [14]: 91.3% | viability, T/C [15]: 95% | viability, T/C [16]: 103% | viability, T/C [17]: 93.8% | viability, T/C [18]: 73.2% | viability, T/C [19]: 94.8% | viability, T/C [20]: 96.4% | viability, T/C [21]: 95.7% | viability, T/C [22]: 97.5% | viability, T/C [23]: 105% | viability, T/C [24]: 69.4% | viability, T/C [25]: 89.9% | viability, T/C [26]: 91.5% | viability, T/C [27]: 97.5% | viability, T/C [28]: 92.5% | viability, T/C [29]: 99.8% | viability, T/C [30]: 64.3% | viability, T/C [31]: 94.5% | viability, T/C [32]: 77.6% | viability, T/C [33]: 89% | viability, T/C [34]: 92.5% | viability, T/C [35]: 94.8% | viability, T/C [36]: 62.5%

COc1cccc2c1C(=O)c1c(O)c3c(c(O)c1C2=O)CC(O)(C(=O)CO)CC3OC1CC(N)C(O)C(C)O1 (stereo unspecified) + Cc1[nH]c2ccc(F)cc2c1-c1nc2c3cccnc3c3ncccc3c2[nH]1
IC50 (second compound 0.0316 µM): 204 nM | IC50 (second compound 0.1 µM): 203 nM | IC50 (second compound 0.316 µM): 190 nM | IC50 (second compound 1 µM): 201 nM | IC50 (second compound 3.16 µM): 171 nM | IC50 (second compound 10 µM): 145 nM | viability, T/C [1]: 91.3% | viability, T/C [2]: 62.5% | viability, T/C [3]: 44.3% | viability, T/C [4]: 19.1% | viability, T/C [5]: 2.87% | viability, T/C [6]: 0.48% | viability, T/C [7]: 91.1% | viability, T/C [8]: 62.1% | viability, T/C [9]: 45.2% | viability, T/C [10]: 16.8% | viability, T/C [11]: 2.57% | viability, T/C [12]: 1.39% | viability, T/C [13]: 84.3% | viability, T/C [14]: 60.2% | viability, T/C [15]: 43% | viability, T/C [16]: 18.9% | viability, T/C [17]: 3.58% | viability, T/C [18]: 1.15% | viability, T/C [19]: 94.7% | viability, T/C [20]: 61.9% | viability, T/C [21]: 44.7% | viability, T/C [22]: 19.4% | viability, T/C [23]: 2.12% | viability, T/C [24]: 1.25% | viability, T/C [25]: 82.6% | viability, T/C [26]: 58.5% | viability, T/C [27]: 40.8% | viability, T/C [28]: 16.7% | viability, T/C [29]: 4.43% | viability, T/C [30]: 1.38% | viability, T/C [31]: 90.3% | viability, T/C [32]: 54% | viability, T/C [33]: 39.5% | viability, T/C [34]: 15.7% | viability, T/C [35]: 3.44% | viability, T/C [36]: 0.4%

COc1ccc([C@@H](O)c2cc(-c3ncnc4cc(N5CCOCC5)ccc34)c(F)cc2Cl)nn1 + CN(C)c1ccc(Nc2c3ccc(NC(=O)CCN4CCCC4)cc3nc3cc(NC(=O)CCN4CCCC4)ccc23)cc1
IC50 (second compound 0.0316 µM): 1870 nM | IC50 (second compound 0.1 µM): 1170 nM | IC50 (second compound 0.316 µM): 1160 nM | IC50 (second compound 1 µM): 1020 nM | IC50 (second compound 3.16 µM): 960 nM | IC50 (second compound 10 µM): 844 nM | viability, T/C [1]: 103% | viability, T/C [2]: 86% | viability, T/C [3]: 73.1% | viability, T/C [4]: 63% | viability, T/C [5]: 38.2% | viability, T/C [6]: 32.1% | viability, T/C [7]: 89.1% | viability, T/C [8]: 92.2% | viability, T/C [9]: 80.6% | viability, T/C [10]: 52.4% | viability, T/C [11]: 34.3% | viability, T/C [12]: 28.8% | viability, T/C [13]: 88.1% | viability, T/C [14]: 87.4% | viability, T/C [15]: 71.5% | viability, T/C [16]: 53.7% | viability, T/C [17]: 34.3% | viability, T/C [18]: 29.1% | viability, T/C [19]: 91.5% | viability, T/C [20]: 82.8% | viability, T/C [21]: 77.2% | viability, T/C [22]: 50.3% | viability, T/C [23]: 31.8% | viability, T/C [24]: 29.2% | viability, T/C [25]: 82.6% | viability, T/C [26]: 80% | viability, T/C [27]: 75.3% | viability, T/C [28]: 46.8% | viability, T/C [29]: 33.7% | viability, T/C [30]: 22.9% | viability, T/C [31]: 79.9% | viability, T/C [32]: 78.8% | viability, T/C [33]: 73.1% | viability, T/C [34]: 44.2% | viability, T/C [35]: 31.4% | viability, T/C [36]: 20.7%
